System: TNFSF10
Assay: TNFSF10 and eRNA expression with TIC10 treatment
Assay type: cell-based, human
Conditions: TIC10 treatment 48 hours; FIG. 6F left
Protocol: For the negative control experiment, 5 uM of TIC10 (SML1068, Sigma-Aldrich) was treated for 48 hrs to activate the apoptosis pathway by inducing the level of TNFSF10 expression.

SMILES: Cc1ccccc1CN1C(=O)C2=C(CCN(Cc3ccccc3)C2)N2CCN=C12 [TIC10]
- TNFSF10 expression: induced TNFSF10 expression significantly
- expression of the virus inducible eRNAs associated with the TNFSF10 gene: did not affect expression
